Results on 47 compounds are retold here after US9211296B2, “Therapeutic compounds for blocking DNA synthesis of POX viruses” (priority 2007, dated 2015).

One test addresses vaccinia virus DNA synthesis (viral DNA polymerase and its associated factors) (Vaccinia virus, UniProt P06856). It is filed as biochemical. Particulars: read-out: DNA Synthesis IC50.
`CCN1CCN(c2ccc(Nc3ccnc4cc5ccccc5cc34)cc2)CC1`: the concentration for half-maximal inhibition (IC50) stood at 0.5 µM.

On to `BrCc1ccc(-c2noc(-c3ccncc3)n2)cc1`, for which the IC50 came out at 1.3 µM.

For the compound `CC[n+]1cc(/C=C2\SC=CN2C)c(C)c2cc(OC)c3ccccc3c21`, the IC50 turned out to be 3.5 µM.

For the compound `COc1ccc2c(c1)C=C/C(=C\c1sc3ccccc3[n+]1C)N2C`, the half-maximal inhibitory concentration (IC50) amounted to 4 µM.

As for `CC(C)Nc1ccc(Nc2ccnc3cc4ccccc4cc23)cc1`, the IC50 is 4.1 µM.

With `CCOC(=O)c1cnc2c(C)c(C)ccc2c1NCCCN(C)C`, the IC50 came to 5 µM.

As for `CC1=CC(C)(C)N=C(Nc2nc(C)c3cc(C)cc(C)c3n2)N1`, the concentration for half-maximal inhibition (IC50) turned out to be 5.3 µM.

Consider `CN(C)CCc1cc2c(c3c1ccc1ccccc13)OCO2`, for which the IC50 is 5.4 µM.

Turning to `CCN(CC)CCCNc1nc2cc(OC)c(OC)cc2c2nc(-c3ccccc3)nn12`, the IC50 is 5.9 µM.

Consider `Cc1cc(NCCN2CCCCC2)c2ccc3ccccc3c2n1`, for which the IC50 was found to be 6 µM.

Turning to `OC(CN1CCNCC1)Cn1c2ccc(Br)cc2c2cc(Br)ccc21` (centres unmarked), the IC50 was 6.3 µM.

As to `CC1CCCC(C)N1CCNc1nc2ccccc2c2nc(-c3ccccc3)nn12` (centres unmarked), the IC50 was found to be 7.3 µM.

Consider `O=C(O)c1ccc(CS(=O)(=O)c2ccccc2)o1`, for which the IC50 turned out to be 7.4 µM.

For `COc1ccc2nc(NC(=N)N)nc(C)c2c1`, the IC50 worked out at 7.4 µM.

As to `O=C(NCCCN1CCCC1)c1cc2c(Cl)nc3ccccc3c2s1`, the IC50 stood at 10 µM.

As to `Cc1ccc2nc(Cl)c3cc(C(=O)N(CCN(C)C)Cc4ccco4)sc3c2c1`, the IC50 was found to be 10 µM.

On to `CN(C)CC/N=c1\cc(-c2ccccc2)oc2ccc(Cl)cc12` [drawing 93], for which the IC50 came to 6.7 µM.

For another test, the system named is vaccinia virus. It is filed as cell-based.
Conditions: not given
Turning to `CN(C)CC/N=c1\cc(-c2ccccc2)oc2ccc(Cl)cc12` [I, (E)-N-1-(6-chloro-2-phenyl-4H-chromen-4-ylidene)-N2,N2-dimethylethane-1,2-diamine], the “Blocking the replication of vaccinia virus in cells” value (“Blocking the replication” below) is “effective in blocking the replication of vaccinia virus in cells”.

On to `Cc1ccc2oc(-c3ccccc3)c/c(=N\CCO)c2c1` [II, (E)-2-(6-methyl-2-phenyl-4H-chromen-4-ylideneamino)ethanol], for which the “Blocking the replication” value is reported as “effective in blocking the replication of vaccinia virus in cells”.

Turning to `CCC/N=c1\cc(-c2ccccc2)oc2ccc(C)cc12` [III, (E)-N-(6-methyl-2-phenyl-4H-chromen-4-ylidene)propan-1-amine], the “Blocking the replication” value is “effective in blocking the replication of vaccinia virus in cells”.

Regarding `O=C(O)c1ccccc1Nc1cccc(C(F)(F)F)c1` [IV, Flufenamic Acid], the “Blocking the replication” value is “effective in blocking the replication of vaccinia virus in cells”.

With `O=C(O)Cn1c2ccc(Cl)cc2c2nc3ccccc3nc21` [IX, 6H-Indolo[2,3-b]quinoxaline-6-acetic acid, 9-chloro-(9CI)], the “Blocking the replication” value was “effective in blocking the replication of vaccinia virus in cells”.

On to `O=c1cc(-c2ccc(O)cc2)oc2cc(O)cc(O)c12` [V, Apigenin], for which the “Blocking the replication” value is given as “effective in blocking the replication of vaccinia virus in cells”.

As to `Cn1cc(C2=C(c3cn(CCCSC(=N)N)c4ccccc34)C(=O)NC2=O)c2ccccc21` [VI, Carbamimidothioic acid, 3-[3-[2,5-dihydro-4-(1-methyl-1H-indol-3-yl)-2,5-dioxo-1H-pyrrol-3-yl]-1H-indol-1-yl]propyl ester (9CI)], the “Blocking the replication” value is given as “effective in blocking the replication of vaccinia virus in cells”.

For `COc1ccc(-c2cc3ccccn3c2C(=O)c2cccnc2)c(OC)c1` [VII, (2-(2,4-dimethoxyphenyl)indolizin-3-yl)(pyridin-3-yl)methanone], the “Blocking the replication” value was “effective in blocking the replication of vaccinia virus in cells”.

As for `COC(=O)c1cccc2c1-c1ccccc1/C2=N\O` [VIII, (E)-methyl 9-(hydroxyimino)-9H-fluorene-4-carboxylate], the “Blocking the replication” value was “effective in blocking the replication of vaccinia virus in cells”.

Regarding `c1ccc2nc3c(nc2c1)c1ccccc1n3CCN1CCOCC1` [X, 6H-Indolo[2,3-b]quinoxaline-6-(2-morpholinoethy)], the “Blocking the replication” value is on record as “effective in blocking the replication of vaccinia virus in cells”.

With `CCS(=O)(=O)N1CCN=C1SCc1ccc(Cl)cc1Cl` [XI, 1H-Imidazole, 2-[[(2,4-dichlorophenyl)methyl]thio]-1-(ethylsulfonyl)-4,5-dihydro-(9CI)], the “Blocking the replication” value is on record as “effective in blocking the replication of vaccinia virus in cells”.

With `Cc1cc(OC(=O)c2ccco2)nc(SCc2c(Cl)cccc2Cl)n1` [XII, 2-(2,6-dichlorobenzylthio)-6-methylpyrimidin-4-yl furan-2-carboxylate], the “Blocking the replication” value is reported as “effective in blocking the replication of vaccinia virus in cells”.

With `N=C1/C(=C/c2coc3ccccc3c2=O)C(=O)N=C2SC=NN12` [XIII, (Z)-5-imino-6-((4-oxo-4H-chromen-3-yl)methylene)-5H-[1,3,4]thiadiazolo[3,2-a]pyrimidin-7(6H)-one], the “Blocking the replication” value is “effective in blocking the replication of vaccinia virus in cells”.

`Cc1ccc2c(Sc3ccc(Cl)cc3)c(C(=O)O)[nH]c2c1` [XIV, 3-(4-chlorophenylthio)-6-methyl-1H-indole-2-carboxylic acid]: the “Blocking the replication” value was “effective in blocking the replication of vaccinia virus in cells”.

On to `Cc1csc2c(N3CCN(C(=O)NC(C)(C)C)CC3)ncnc12` [XIX, N-tert-butyl-4-(7-methylthieno[3,2-d]pyrimidin-4-yl)piperazine-1-carboxamide], for which the “Blocking the replication” value was “effective in blocking the replication of vaccinia virus in cells”.

For `Cc1cc(N)c2cc(OCCOc3ccc4nc(C)cc(N)c4c3)ccc2n1` [XL, 6,6′-(ethane-1,2-diylbis(oxy))bis(2-methylquinolin-4-amine)], the “Blocking the replication” value is recorded as “effective in blocking the replication of vaccinia virus in cells”.

Consider `O=S(=O)(c1cc(Cl)ccc1O)c1cc(Cl)ccc1O` [XLI, 2,2′-sulfonylbis(4-chlorophenol)], for which the “Blocking the replication” value is “effective in blocking the replication of vaccinia virus in cells”.

Turning to `Oc1ccc([Te]CCNCC[Te]c2ccc(O)cc2)cc1` [XLII, 4,4′-(2,2′-azanediylbis(ethane-2,1-diyl)bis(tellanediyl))diphenol], the “Blocking the replication” value is “effective in blocking the replication of vaccinia virus in cells”.

`Cc1c(N=Cc2cc(Br)cc(Br)c2O)cccc1C(=O)O` [XV, Benzoic acid, 3-[[(3,5-dibromo-2-hydroxyphenyl)methylene]amino]-2-methyl-(9CI)]: the “Blocking the replication” value was “effective in blocking the replication of vaccinia virus in cells”.

`Cc1cc(/N=C/c2cc(Cl)cc(Cl)c2O)no1` [XVI, (E)-2,4-dichloro-6-((5-methylisoxazol-3-ylimino)methyl)phenol]: the “Blocking the replication” value was “effective in blocking the replication of vaccinia virus in cells”.

Consider `CC(=O)n1c2ccccc2c2nc(C)sc21` [XVII, 4H-Thiazolo[5,4-b]indole, 4-acetyl-2-methyl-(9CI)], for which the “Blocking the replication” value is given as “effective in blocking the replication of vaccinia virus in cells”.

As for `CCN1CCCC1CNC(=O)c1ccc2c(c1)sc1nc(-c3cccc(OC)c3)cn12` (centres unmarked) [XVIII, Imidazo[2,1-b]benzothiazole-7-carboxamide, N-(1-ethyl-2-pyrrolidyl)methyl-2-(3-methoxyphenyl)-(9CI)], the “Blocking the replication” value is “effective in blocking the replication of vaccinia virus in cells”.

Turning to `O=C(Nc1ccccc1C(=O)O)OCC1c2ccccc2-c2ccccc21` [XXI, Benzoic acid, 2-[[(9H-fluoren-9-ylmethoxy)carbonyl]amino]-(9CI)], the “Blocking the replication” value was “effective in blocking the replication of vaccinia virus in cells”.

For `COc1ccc(Nc2nc(N3CCN(C)CC3)nc3ccccc23)c(OC)c1` [XXII, 4-Quinazolinamine, N-(2,4-dimethoxyphenyl)-2-(4-methyl-1-piperazinyl)-(9CI)], the “Blocking the replication” value is “effective in blocking the replication of vaccinia virus in cells”.

Consider `COc1ccc2c(C)nc(N=C(N)N=C(C)c3ccccc3C(=O)O)nc2c1` [XXIII, Benzoic acid, 2-[1-[[amino[(7-methoxy-4-methyl-2-quinazolinyl)imino]methyl]imino]ethyl]-(9CI)], for which the “Blocking the replication” value is “effective in blocking the replication of vaccinia virus in cells”.

As for `CCn1c2ccccc2c2ccc(/C=N/n3cnnc3)cc21` [XXIV, (E)-N-((9-ethyl-9H-carbazol-2-yl)methylene)-4H-1,2,4-triazol-4-amine], the “Blocking the replication” value is “effective in blocking the replication of vaccinia virus in cells”.

For `CN(C)CCOC(=O)c1ccc2[nH]c3c(c2c1)CSCC3` [XXIX, Thiopyrano[4,3-b]indole-8-carboxylic acid, 1,3,4,5-tetrahydro-, 2-(dimethylamino)ethyl ester (7CI,8CI,9CI)], the “Blocking the replication” value is recorded as “effective in blocking the replication of vaccinia virus in cells”.

`O=C(C=Cc1ccco1)C=Cc1ccco1` [XXVI, 1,4-Pentadien-3-one, 1,5-di-2-furanyl-(9CI)]: the “Blocking the replication” value is reported as “effective in blocking the replication of vaccinia virus in cells”.

`COC(=O)c1c(NC(=O)c2ccc(OC)cc2)sc2c1CCN(C(C)C)C2.Cl` [XXVII, Methyl 6-isopropyl-2-(4-methoxyphenylamido)-4,5,6,7-tetrahydrothieno[2,3-c]pyridine-3-carboxylate hydrochloride]: the “Blocking the replication” value was “effective in blocking the replication of vaccinia virus in cells”.

As to `CCOC(=O)c1c(NC(=O)/C=C/C(=O)O)sc(C)c1-c1ccccc1` [XXVIII, (E)-4-(3-(ethoxycarbonyl)-5-methyl-4-phenylthiophen-2-ylamino)-4-oxobut-2-enoic acid], the “Blocking the replication” value is “effective in blocking the replication of vaccinia virus in cells”.
